Drawing on patent US20050119190A1, “Inhibitors of the blood-clotting factor xa, production thereof and use of the same” (priority 2002, published 2005), this text covers Ki for 29 compounds.

Where a name gives a salt, the structure may show the parent alone.

T1 sequence (P00743 234-492 limits assumed): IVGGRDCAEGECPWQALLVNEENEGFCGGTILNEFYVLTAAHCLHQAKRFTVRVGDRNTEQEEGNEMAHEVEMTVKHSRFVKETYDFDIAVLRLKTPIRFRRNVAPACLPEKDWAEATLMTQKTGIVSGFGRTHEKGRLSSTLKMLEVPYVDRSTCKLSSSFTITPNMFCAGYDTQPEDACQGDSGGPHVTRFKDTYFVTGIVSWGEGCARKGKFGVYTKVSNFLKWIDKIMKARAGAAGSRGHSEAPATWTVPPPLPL
T1 sequence (P00743 41-180 partner limits assumed): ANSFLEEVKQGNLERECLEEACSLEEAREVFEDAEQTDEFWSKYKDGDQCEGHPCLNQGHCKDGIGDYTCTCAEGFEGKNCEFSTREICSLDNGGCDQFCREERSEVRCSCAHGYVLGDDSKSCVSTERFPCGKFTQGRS

One assay has as its target T1, F Xa (bovine) (Bos taurus, UniProt P00743).
T1 construct: purchased Diagnostic Reagents Ltd, Thame, GB
Description: Inhibition of F Xa, Ki by the method of Dixon, chromogenic substrate Moc-D-Nle-Gly-Arg-pNA. It is filed as biochemical. The following applies: Example 2; bovine F Xa, 25° C., pH 8.0; average of at least three determinations. As to the method: The inhibitory effect was determined by incubating 200 μl of Tris buffer (0.05 M, 0.154 M NaCI, 5% ethanol, pH 8.0; contains the inhibitor), 25 μl of substrate (Moc-D-Nle-Gly-Arg-pNA in H2O; Pentapharm Ltd., Basel, Switzerland) and 50 μl of F Xa (bovine, Diagnostic Reagents Ltd, Thame, GB) at 25° C. After 3 min, the reaction was stopped by adding 25 μl of acetic acid (50%), and the absorption at 405 nm was determined using a microplate reader (MR 5000, Dynatech, Denkendorf, Germany). The Ki values were found by the method of Dixon (Biochem. J. 55, 170-171, 1953) by linear regression using a computer program. The Ki values are the average of at least three determinations.
Consider `CC(C)(C)OC[C@@H](NS(=O)(=O)Cc1ccccc1)C(=O)NC(CC(=O)O)C(=O)NCc1ccc(C(=N)N)cc1` (stereo partly drawn) [Bzl—SO2 D CH2—O—tBu H CH—CH2—COOH CH2], for which the Ki worked out at 1200 nM.
Same read-out and setting: next, `CC(C)(C)OC[C@@H](NS(=O)(=O)Cc1ccccc1)C(=O)NCC(=O)NCc1ccc(C(=N)N)cc1` [Bzl—SO2 D CH2—O—tBu H CH2 CH2, Benzylsulfonyl-D-Ser(tBu)-Gly 4-amidinobenzylamide]: 50 nM; `CC(C)(C)OC[C@@H](NS(=O)(=O)Cc1ccccc1)C(=O)N[C@@H](CCC(=O)O)C(=O)NCc1ccc(C(=N)N)cc1` [Bzl—SO2 D CH2—O—tBu H CH—(CH2)2—COOH CH2, Benzylsulfonyl-D-Ser(tBu)-Glu 4-amidinobenzylamide×TFA]: 250 nM.

Staying with this assay, now noted: Example 4; inhibition of factor Xa by inhibitors of formula I.
`CC(C)(C)OC[C@@H](NS(=O)(=O)Cc1cccc(C(=O)O)c1)C(=O)NCC(=O)NCc1ccc(C(=N)N)cc1` [compound 19] registered a Ki of 130 nM.
The same measure, in the same setting: to `CC(C)(C)OC[C@@H](NS(=O)(=O)Cc1ccc(CC(=O)O)cc1)C(=O)NCC(=O)NCc1ccc(C(=N)N)cc1` [compound 23] belongs 170 nM; to `CC(C)(C)OC[C@@H](NS(=O)(=O)Cc1ccc(C#N)cc1)C(=O)NCC(=O)NCc1ccc(C(=N)N)cc1` [compound 12], 65 nM.
Compound `CC(C)(C)OC[C@@H](NS(=O)(=O)Cc1ccccc1)C(=O)N[C@@H](CO)C(=O)NCc1ccc(C(=N)N)cc1` [compound 11] yielded a Ki of 54 nM.
Still for that read-out and setting: next, `N=C(N)NCCC[C@@H](NS(=O)(=O)CC1CCCCC1)C(=O)NCC(=O)NCc1ccc(C(=N)N)cc1` [compound 2]: 6.7 nM; `N=C(N)c1ccc(CNC(=O)CNC(=O)[C@@H](Cc2ccc(C(=N)N)cc2)NS(=O)(=O)Cc2ccccc2)cc1` [compound 26]: 260 nM.
As for `CC(C)(C)OC[C@@H](NS(=O)(=O)Cc1ccncc1)C(=O)NCC(=O)NCc1ccc(C(=N)N)cc1` [compound 22], the Ki stood at 170 nM.
The compound `CC(C)(C)OC[C@@H](NS(=O)(=O)Cc1ccc(F)cc1)C(=O)NCC(=O)NCc1ccc(C(=N)N)cc1` [compound 9] registered a Ki of 36 nM.
Still for that read-out and setting: to `CC(C)(C)OC[C@@H](NS(=O)(=O)Cc1ccccc1C(=O)O)C(=O)NCC(=O)NCc1ccc(C(=N)N)cc1` [compound 20] belongs 140 nM.
`CC(C)(C)OC[C@@H](NS(=O)(=O)Cc1ccccc1)C(=O)NCC(=O)NCc1ccc(C(N)=NO)cc1` [compound 33] returned a Ki of 26000 nM.
Still for that read-out and setting: next, `COC(=O)c1ccc(CS(=O)(=O)N[C@H](COC(C)(C)C)C(=O)NCC(=O)NCc2ccc(C(=N)N)cc2)cc1` [compound 21]: 160 nM.
Consider `CC(C)(C)OC[C@@H](NS(=O)(=O)CCc1ccccc1)C(=O)NCC(=O)NCc1ccc(C(=N)N)cc1` [compound 17], for which affinity was put at a Ki of 88 nM.
Still for that read-out and setting: next, `COC(=O)Cc1ccc(CS(=O)(=O)N[C@H](COC(C)(C)C)C(=O)NCC(=O)NCc2ccc(C(=N)N)cc2)cc1` [compound 14]: 70 nM; `CC(C)(C)OC[C@@H](NS(=O)(=O)Cc1ccc2ccccc2c1)C(=O)NCC(=O)NCc1ccc(C(=N)N)cc1` [compound 15]: 78 nM; `CC(C)(C)OC[C@@H](NS(=O)(=O)CCc1cccc2ccccc12)C(=O)NCC(=O)NCc1ccc(C(=N)N)cc1` [compound 28]: 280 nM.
In the case of `N=C(N)c1ccc(CNC(=O)CNC(=O)[C@@H](Cc2cccc(C(=N)N)c2)NS(=O)(=O)Cc2ccccc2)cc1` [No. 1, Benzylsulfonyl-dPhe(3-amidino)-Gly 4-(amidino)benzylamide×2 TFA], the Ki was determined as 34 nM.
In turn, `N=C(N)c1ccc(CNC(=O)C(CCCCN)NC(=O)C(CC2CCCCC2)NS(=O)(=O)Cc2ccccc2)cc1` (stereo not drawn) [compound 13] returned a Ki of 67 nM.
In the case of `N=C(N)c1ccc(CNC(=O)CNC(=O)[C@@H](Cc2c[nH]cn2)NS(=O)(=O)Cc2ccccc2)cc1` [compound 32], the affinity corresponds to a Ki of 670 nM.
Still for that read-out and setting: to `CC(C)(C)OCC(NS(=O)(=O)Cc1ccc(C(=O)O)cc1)C(=O)NC(CO)C(=O)NCc1ccc(C(=N)N)cc1` (stereo not drawn) [compound 27] belongs 270 nM; to `CC(C)(C)OC[C@@H](NS(=O)(=O)Cc1cccc(C(=O)O)c1)C(=O)NCC(=O)NCc1ccc(C(=N)N)cc1` [No. 19, 3-(HOOC)Benzylsulfonyl-dSer(tBu)-Gly 4-amidinobenzylamide×TFA], 27 nM.
Compound `CC(C)(C)OC[C@@H](NS(=O)(=O)Cc1ccccc1)C(=O)N[C@@H](CO)C(=O)NCc1ccc(C(=N)N)cc1` [No. 11, Bzls-dSer(tBu)-Ser 4-(amidino)benzylamide×TFA] had a Ki of 28 nM.
The same measure, in the same setting: to `CC(C)(C)OC[C@@H](NS(=O)(=O)Cc1ccc(Cl)c(Cl)c1)C(=O)NCC(=O)NCc1ccc(C(=N)N)cc1` [compound 16] belongs 83 nM.
Turning to `CC(C)(C)OC[C@@H](NS(=O)(=O)Cc1ccc(C(=O)O)cc1)C(=O)NCC(=O)NCc1ccc(C(=N)N)cc1` [compound 10], the Ki came out at 53 nM.
Still for that read-out and setting: to `CC(C)(C)OC[C@@H](NS(=O)(=O)Cc1ccccc1)C(=O)N[C@@H](CCC(=O)O)C(=O)NCc1ccc(C(=N)N)cc1` [Bzl—SO2 D CH2—O—tBu H CH—(CH2)2—COOH CH2, Benzylsulfonyl-D-Ser(tBu)-Glu 4-amidinobenzylamide×TFA] belongs 6.5 nM; to “4-(Aminomethyl)benzylsulfonyl-dSer(tBu)-Gly 4-amidinobenzylamide×2 TFA [Example 7]”, 29 nM; to `CC(C)(C)OC[C@@H](NS(=O)(=O)Cc1ccc(Cl)cc1)C(=O)NCC(=O)NCc1ccc(C(=N)N)cc1` [compound 3], 14 nM.

For the next assay, the target named is F Xa.
Test: not given
The following applies: values from cited literature; cited from earlier work.
For the compound `N=C(N)c1ccc(C=C2CCCCC(=Cc3ccc(C(=N)N)cc3)C2=O)cc1` [BABCH], the Ki is 13 nM.

For orientation: Ki means the dissociation constant of the complex between target and ligand, obtained from inhibition or displacement.
